Broadly, the pIC50 is the negative decadic logarithm of the IC50, by convention in mol/L. Low readings indicate a large IC50, high ones a small IC50.

pIC50: −log10 of the molar value.

Our source for the IC50 values is patent US20250059204A1, “FUSED BENZOISOXAZOLYL COMPOUNDS AS KAT6A INHIBITORS” (Aurigene Oncology Limited, priority 2021, published 2025).

The assay has as its target human-KAT6A (MYST domain 507-778 aa) (Homo sapiens (Human), UniProt Q92794). The experiment in a line: KAT6A biochemical assay (TR-FRET). To be noted: H4 peptide 200 nM, acetyl-CoA 600 nM. An excerpt: TR-FRET based method was used for assaying compounds of the present invention for KAT6A enzyme inhibitory activity. TR-FRET is homogeneous proximity assay where Europium-labelled anti-acetyl lysine antibody binds to the acetylated substrate labelled with biotin which in turn binds to streptavidin labelled APC fluorescence acceptor. Europium can transfer energy to APC in the complex and the interaction of two dye-labelled binding partners is detected by the energy transfer between a donor and an acceptor dye, and the subsequent light emission by the acceptor dye. KAT6A transfer an acetyl group from acetyl CoA to lysine amino acids of histones/target proteins. Typically, 5 μL of human-KAT6A (MYST domain 507-778 aa) in assay buffer (100 mM Tris HCl (pH 7.8), 15 mM NaCl, 1 mM EDTA, 0.01% Tween-20, 0.02% BSA, 1 mM DTT) is added to 384-well plate containing 5 μL of selected test compound in final 1% DMSO, serially diluted in 1:3 in an 8-10-point titration. The selected compound of the present invention and enzyme are incubated for 30 min at room temperature. Next, 5 μL of substrate mix containing histone H4 peptide and acetyl-CoA in assay buffer is added to the plate. The final concentrations of H4 peptide and acetyl-CoA are 200 nM and 600 nM respectively. Following 30 min reaction at room temperature, 5 μL of detection mix containing Europium labelled anti-acetyl antibody and streptavidin-APC is added to the reaction wells. The plate is further incubated for 45 min at room temperature and is read in TR-FRET mode (Ex:340 nm; Em: 615 nm and 665 nm) on a plate reader. The percent inhibition was calculated from the ratio of the fluorescence (FL) intensities [(F665/F615)×10,000) using the formula […]. IC50 values of the compounds were determined by fitting the dose-response data to sigmoidal curve fitting equation using Graph pad prism software V8.

Sequence of human-KAT6A (MYST domain 507-778 aa) (Q92794 507-778): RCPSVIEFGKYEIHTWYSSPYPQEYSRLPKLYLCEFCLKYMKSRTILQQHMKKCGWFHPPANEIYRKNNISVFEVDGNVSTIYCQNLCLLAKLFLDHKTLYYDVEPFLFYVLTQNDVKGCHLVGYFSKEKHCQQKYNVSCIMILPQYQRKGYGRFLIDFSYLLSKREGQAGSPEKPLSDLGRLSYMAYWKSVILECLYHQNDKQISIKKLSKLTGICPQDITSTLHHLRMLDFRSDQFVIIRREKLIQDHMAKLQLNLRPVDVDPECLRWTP

Take `COc1cccc(OC)c1S(=O)(=O)Nc1noc2cc(Cn3cc(F)cn3)c3c(c12)OCC3` [Compound 34]: the pIC50 is 7.59.
In the case of `COc1cc(C2CC2)ccc1S(=O)(=O)Nc1noc2cc(Cn3cccn3)c3c(c12)OCC3` [Compound 65, N-(4-((1H-pyrazol-1-yl)methyl)-2,3-dihydrobenzofuro[7,6-d]isoxazol-8-yl)-4-cyclopropyl-2-methoxybenzenesulfonamide], the pIC50 is 8.00.
With `COc1cccc(OC)c1S(=O)(=O)Nc1noc2cc(Cn3cccn3)c3c(c12)OC(C)C3` (single isomer, unassigned) [Compound 22, N-(4-((1H-pyrazol-1-yl)methyl)-2-methyl-2,3-dihydrobenzofuro[7,6-d]isoxazol-8-yl)-2,6-dimethoxybenzenesulfonamide], the pIC50 was 7.68.
The compound `COCC1Cc2c(Cn3cccn3)cc3onc(NS(=O)(=O)c4c(OC)cccc4OC)c3c2O1` (stereo not shown) [Compound 60, N-(4-((1H-pyrazol-1-yl)methyl)-2-(methoxymethyl)-2,3-dihydrobenzofuro[7,6-d]isoxazol-8-yl)-2,6-dimethoxybenzenesulfonamide] showed a pIC50 of 7.00.
For `CCOc1ccccc1S(=O)(=O)Nc1noc2cc(Cn3cccn3)c3c(c12)OCC3` [Compound 52], the pIC50 was 7.49.
Next, `O=S(=O)(Nc1noc2cc(Cn3cccn3)c3c(c12)OCC3)c1ccccc1OC(F)(F)F` [Compound 50]: 7.15; `COC(=O)c1ccc(OC)c(S(=O)(=O)Nc2noc3cc(Cn4cccn4)c4c(c23)OCC4)c1` [Compound 42]: 7.58.
`O=S(=O)(Nc1noc2cc(Cn3cccn3)c3c(c12)OCC3)c1ccccc1-c1ccccc1` [Compound 53] gave a pIC50 of 7.54.
In turn, `COc1cccc(OC)c1S(=O)(=O)Nc1noc2cc(-c3cccnc3)c3c(c12)OCC3` [Compound 54] had a pIC50 of 6.80.
`COc1ccc(C(=O)O)cc1S(=O)(=O)Nc1noc2cc(Cn3cccn3)c3c(c12)OCC3` [Compound 63, 3—(N-(4-((1H-pyrazol-1-yl)methyl)-2,3-dihydrobenzofuro[7,6-d]isoxazol-8-yl)sulfamoyl)-4-methoxybenzoic Acid] showed a pIC50 of 7.64.
Compound `COc1cccc(OC)c1S(=O)(=O)Nc1noc2cc(-c3ccccc3)c3c(c12)OCCC3` [Compound 15] had a negative logarithm of the IC50 (pIC50) of 7.35.
The value for `O=S(=O)(Nc1noc2cc(Cn3cccn3)c3c(c12)OCC3)c1c(Cl)cccc1Cl` [Compound 45] was 7.40; that for `COc1cccc(OC)c1S(=O)(=O)Nc1noc2cc(-c3ccccc3)c3c(c12)OC(C)(C)C3` [Compound 57] was 6.87.
With `COc1cccc(OC)c1S(=O)(=O)Nc1noc2cc(Cn3cccn3)c3c(c12)OCC3` [Compound 2, N-(4-((1H-pyrazol-1-yl)methyl)-2,3-dihydrobenzofuro[7,6-d]isoxazol-8-yl)-2,6-dimethoxybenzenesulfonamide], the pIC50 is 7.70.
Next, `COc1cc(C(F)(F)F)ccc1S(=O)(=O)Nc1noc2cc(Cn3cccn3)c3c(c12)OCC3` [Compound 31]: 7.74.
As for `COc1cccc(OC)c1S(=O)(=O)Nc1noc2cc(-c3ccccc3)c3c(c12)OC(C)C3` (stereo not shown) [Compound 18], the pIC50 was 7.43.
Take `COc1cccc(OC)c1S(=O)(=O)Nc1noc2cc(Cn3ccc(C(F)(F)F)n3)c3c(c12)OCC3` [Compound 37]: the pIC50 was 6.31.
`COc1cccc(OC)c1S(=O)(=O)Nc1noc2cc(-c3ccsc3)c3c(c12)OCC3` [Compound 3]: the pIC50 was 7.37.
`COc1cccc(OC)c1S(=O)(=O)Nc1noc2cc(-c3ccoc3)c3c(c12)OCC3` [Compound 4]: the pIC50 is 7.54.
Turning to `COc1cccc(OC)c1S(=O)(=O)Nc1noc2cc(-c3ccco3)c3c(c12)OCC3` [Compound 8], the pIC50 is 7.37.
`COc1ccc(-n2cccn2)cc1S(=O)(=O)Nc1noc2cc(Cn3cccn3)c3c(c12)OCC3` [Compound 40] had a pIC50 of 7.57.
The compound `COc1cccc(OC)c1S(=O)(=O)Nc1noc2cc(-c3ccccc3)c3cc(C)oc3c12` [Compound 59] showed a pIC50 of 7.46.
`COc1csc(-c2cc3onc(NS(=O)(=O)c4c(OC)cccc4OC)c3c3c2CCO3)c1` [Compound 7] showed a pIC50 of 6.82.
`COc1ccccc1S(=O)(=O)Nc1noc2cc(Cn3cccn3)c3c(c12)OCC3` [Compound 55] gave a pIC50 of 7.47.
With `COCC1Cc2c(Cn3cccn3)cc3onc(NS(=O)(=O)c4c(OC)cccc4OC)c3c2O1` (single isomer, unassigned) [Compound 62, N-(4-((1H-pyrazol-1-yl)methyl)-2-(methoxymethyl)-2,3-dihydrobenzofuro[7,6-d]isoxazol-8-yl)-2,6-dimethoxybenzenesulfonamide], the pIC50 is 6.79.
The compound `O=S(=O)(Nc1noc2cc(Cn3cccn3)c3c(c12)OCC3)c1ccccc1F` [Compound 51] had a pIC50 of 7.46.
With `COCC1Cc2c(Cn3cccn3)cc3onc(NS(=O)(=O)c4c(OC)cccc4OC)c3c2O1` (single isomer, unassigned) [Compound 61, N-(4-((1H-pyrazol-1-yl)methyl)-2-(methoxymethyl)-2,3-dihydrobenzofuro[7,6-d]isoxazol-8-yl)-2,6-dimethoxybenzenesulfonamide], the pIC50 was 6.55.
In turn, `O=S(=O)(Nc1noc2cc(Cn3cccn3)c3c(c12)OCC3)c1ccccc1OCc1ccccn1` [Compound 38] had a pIC50 of 7.49.
For `COc1cc(-n2cccn2)ccc1S(=O)(=O)Nc1noc2cc(Cn3cccn3)c3c(c12)OCC3` [Compound 39], the pIC50 was 7.66.
Next, `COc1cccc(OC)c1S(=O)(=O)Nc1noc2cc(-c3ccc(C)s3)c3c(c12)OCC3` [Compound 12]: 6.54; `COc1cc2c(cc1S(=O)(=O)Nc1noc3cc(Cn4cccn4)c4c(c13)OCC4)CCCC2` [Compound 43]: 7.92; `COc1ccc(C(C)(C)C)cc1S(=O)(=O)Nc1noc2cc(Cn3cccn3)c3c(c12)OCC3` [Compound 49]: 7.12.
Regarding `COc1cc(C(C)(C)C)ccc1S(=O)(=O)Nc1noc2cc(Cn3cccn3)c3c(c12)OCC3` [Compound 47], the pIC50 is 7.59.
Compound `CCc1ccc(OC)c(S(=O)(=O)Nc2noc3cc(Cn4cccn4)c4c(c23)OCC4)c1` [Compound 46] gave a pIC50 of 7.70.
The compound `COc1cccc(OC)c1S(=O)(=O)Nc1noc2cc(Cn3cc(C#N)cn3)c3c(c12)OCC3` [Compound 33] showed a pIC50 of 6.90.
For `O=S(=O)(Nc1noc2cc(Cn3cccn3)c3c(c12)OCC3)c1c(F)cccc1F` [Compound 48], the pIC50 is 7.52.
The value for `COc1cccc(OC)c1S(=O)(=O)Nc1noc2cc(Cn3cc(Cl)cn3)c3c(c12)OCC3` [Compound 35] was 7.57; that for `COc1cccc(OC)c1S(=O)(=O)Nc1noc2cc(Cn3cccn3)c3cc(C)oc3c12` [Compound 58] was 7.68; that for `COc1cccc(OC)c1S(=O)(=O)Nc1noc2cc(Cn3cccn3)c3c(c12)OC(C)C3` (stereo not shown) [Compound 21, N-(4-((1H-pyrazol-1-yl)methyl)-2-methyl-2,3-dihydrobenzofuro[7,6-d]isoxazol-8-yl)-2,6-dimethoxybenzenesulfonamide] was 7.72.
Take `COc1cccc(OC)c1S(=O)(=O)Nc1noc2cc(-c3cccs3)c3c(c12)OCC3` [Compound 6]: the pIC50 was 7.34.
Next, `COCc1cc2onc(NS(=O)(=O)c3c(OC)cccc3OC)c2c2c1CCO2` [Compound 19]: 7.51; `COc1cccc(OC)c1S(=O)(=O)Nc1noc2cc(-c3ccc(C)o3)c3c(c12)OCC3` [Compound 9]: 7.44; `COc1cccc(OC)c1S(=O)(=O)Nc1noc2cc(Cn3ccnn3)c3c(c12)OCC3` [Compound 41]: 7.60.
The compound `COc1cccc(OC)c1S(=O)(=O)Nc1noc2cc(-c3cc(C)cs3)c3c(c12)OCC3` [Compound 13] gave a pIC50 of 7.15.
On to `COc1cccc(OC)c1S(=O)(=O)Nc1noc2cc(Cn3cc(C(F)(F)F)cn3)c3c(c12)OCC3` [Compound 36], for which the pIC50 was 6.66.
Next, `COc1cccc(OC)c1S(=O)(=O)Nc1noc2cc(-c3ccccc3)c3c(c12)OCCC3C` (stereo not shown) [Compound 17]: 7.13; `COc1cccc(OC)c1S(=O)(=O)Nc1noc2cc(C(C)n3cccn3)c3c(c12)OCC3` (stereo not shown) [Compound 20]: 7.29; `COc1cccc(OC)c1S(=O)(=O)Nc1noc2cc(-c3ccccc3)c3c(c12)OCC3` [Compound 1, 2,6-dimethoxy-N-(4-phenyl-2,3-dihydrobenzofuro[7,6-d]isoxazol-8-yl)benzenesulfonamide]: 7.24.
With `COc1cccc(OC)c1S(=O)(=O)Nc1noc2cc(Cn3cccn3)c3c(c12)OC(C)C3` (single isomer, unassigned) [Compound 23, N-(4-((1H-pyrazol-1-yl)methyl)-2-methyl-2,3-dihydrobenzofuro[7,6-d]isoxazol-8-yl)-2,6-dimethoxybenzenesulfonamide], the pIC50 is 7.64.
